# From patent US20060120962A1, “Cardiac safe, rapid medication delivery” (priority 2004, published 2006)
# Where “and” joins values, the source holds several entries; their conditions need not be identical. Equal values may be shown once. Read-outs that look alike come from different tables or passages of the source.
# Columns and labels:
# [1] = Pharmacokinetics of aerosolized alprazolam in dog (left ventricular and venous plasma) vs IV bolus; type: in vivo; settings: for AUC(0-t) / bioavailability / Cmax / Tmax / AUC / half-life: female, mongrel, 0.7 mg; for AUC(0-t): venous plasma; for Tmax: median
# Protocol: (§1) This study consisted of five young adult, female, mongrel dogs. Four animals per session were treated with the test article, alprazolam, in two separate surgical/dosing sessions. In Session 1 the test article was administered intravenously (IV) as a 5-second bolus. […] The animals were dosed at a level of 0.7 mg of alprazolam in both dosing sessions.
# Four animals per session were treated with the test article, alprazolam, in two separate surgical/dosing sessions. The animals were dosed at a level of 0.7 mg of alprazolam in both dosing sessions.
# Anesthesia was performed substantially as described in Example 1.
# Whole blood samples were centrifuged. […] All plasma samples were stored until analyzed. […] Plasma samples were mixed with spiking solutions of alprazolam, α-hydroxyalprazolam, 4-hydroxyalprazolam and an internal standard (alprazolam-d5). […] Drug or metabolite concentrations were calculated by comparing (drug or metabolite)/internal standard ratios to standard curves prepared in dog plasma.
# Individual plasma concentration-time data from four animals, two sampling sites, and two dose routes were analyzed by noncompartmental pharmacokinetic methods via WinNonlin using nominal time points. Areas were calculated using the linear trapezoidal rule.
# [2] = Clinical observations and body weights after alprazolam administration in dogs; type: in vivo; settings: dog
# Protocol: as §1
# [3] = humans; reported; cited from earlier work
# in vivo = settings: female, mongrel, dog, 7 mg; for AUC(0-t): AUC0-10 min; for bioavailability: F, based on venous AUCinf
# Protocol: The objective of this study was to determine the concentration of prochlorperazine in dog plasma processed from whole blood taken from both the left ventricle and venous circulation immediately following administration of prochlorperazine aerosol to the animal by way of the thermal aerosol generation process described herein, during a single deep inhalation.
# This study consisted of four young adult, female, mongrel dogs. The animals were treated with the test article, prochlorperazine (PCZ), in three separate surgical/dosing sessions. In sessions 1 and 3, the test article was administered intravenously (IV), either via a 120-second infusion (Session 1) or as a five-second bolus (Session 3). In session 2, the test article was administered using a thermal aerosol generation process, during a single deep inhalation. Following treatment in each surgical/dosing session, blood samples were collected from the left ventricle and from a peripheral vein for bioanalysis. Left ventricular and venous plasma samples were obtained prior to drug administration. In addition, left ventricular plasma samples were obtained every five seconds during the first 30 seconds following drug administration, as well as frequently thereafter, with the last left ventricular sample collected 10 minutes following drug administration. Venous plasma samples were obtained from 15 seconds to 24 hours following drug administration. Clinical observations and body weights were recorded for all animals at specified time points.
# The animals were treated in three separate surgical/dosing sessions. For each session, the animals were appropriately anesthetized prior to administration of the test article. Each surgical/dosing session was separated by a washout period of approximately 48 hours from the time of the previous treatment administration.
# Session 1: While the animals were anesthetized, the test article (1.4 mL of 5 mg/mL prochloperazine edisylate injection) was administered as a 120-second intravenous (IV) manual infusion via a saphenous vein. Blood sampling commenced at the time of initiation of infusion (t=0).
# Session 2: While the animals were anesthetized, an aerosol generation and administration system was connected in-line to an endotracheal tube to allow for delivery of the aerosol test article (prochlorperazine coated on a chemical, single dose heat package). The aerosol resulting from actuation of the prochlorperazine by the aerosol generation and administration system was administered during a single deep inhalation. Blood sampling commenced at the time of initiation of the deep inhalation (t=0).
# Session 3: While the animals were anesthetized, the test article (1.4 mL of 5 mg/mL prochloperazine edisylate injection) was administered as a five-second IV bolus via a saphenous vein. Blood sampling commenced at the time of initiation of the bolus (t=0).
# Each animal was premedicated with atropine sulfate (0.02 mg/kg, intramuscularly) and acepromazine (0.2 mg/kg, IM, to a maximum dose of 3 mg) prior to induction of anesthesia. At least 10 minutes later, the animal was anesthetized with Propofol(4-8 mg/kg, intravenously). The animal was then intubated and maintained in anesthesia with isoflurane inhalant anesthetic, delivered through a volume-regulated ventilator. An intravenous catheter was placed in a peripheral vessel for administration of lactated Ringer's solution during the procedure at a rate of approximately 5 mL/kg/hr.
# A midline incision was made in the neck and one of the carotid arteries was exposed. The artery was mobilized a distance of about 5 cm and two Vessel-Loops® were placed around it, proximally and distally.
# [4] = Clinical observations and body weights after prochlorperazine administration in dogs; type: in vivo; settings: dog
# [5] = inhaled or intranasal, dog left ventricular plasma, aerosol inhalation
# [6] = inhaled or intranasal, dog venous plasma, aerosol inhalation
# [7] = dog left ventricular plasma, IV bolus
# [8] = left ventricular plasma, inhaled or intranasal, dog left ventricular plasma, aerosol inhalation
# [9] = left ventricular plasma, iv, dog left ventricular plasma, 2-min IV infusion
# [10] = left ventricular plasma, iv, dog left ventricular plasma, IV bolus
# [11] = venous plasma, iv, dog venous plasma, 2-min IV infusion
# [12] = venous plasma, iv, dog venous plasma, IV bolus
# [13] = dog venous plasma, 7 mg, 2-min IV infusion
# [14] = dog venous plasma, 7 mg, IV bolus
# [15] = dog venous plasma, 7 mg, aerosol inhalation
smiles,measurement,setting,value
Cc1nnc2n1-c1ccc(Cl)cc1C(c1ccccc1)=NC2 [alprazolam],last time concentrations measurable (last sampling time),"[1]; dog left ventricle plasma, all cases",10 min
same,median time through which concentrations were measurable,"[1]; dog venous plasma, IV dosing",240 min
same,median time through which concentrations were measurable,"[1]; dog venous plasma, inhalation dosing",360 min
same,mean Cmax for left ventricle plasma relative to venous plasma,"[1]; dog, both routes of administration",~7 fold
same,mean Cmax after inhalation as percentage of values after intravenous dosing,"[1]; dog, left ventricle and venous plasma",approximately 70%
same,bioavailability based upon mean AUC (n=4) by each route,"[1]; dog, left ventricle sampling",81.5%
same,bioavailability based upon mean AUC (n=4) by each route,"[1]; dog, systemic plasma",94.9%
same,AUC(0-t),"[1]; dog, inhaled or intranasal, dog venous plasma, aerosol inhalation, read-out: AUC0-240 (converted)",0.0383 µg·h/mL
same,AUC(0-t),"[1]; dog, inhaled or intranasal, dog venous plasma, aerosol inhalation, read-out: AUClast (converted)",0.0433 µg·h/mL
same,AUC(0-t),"[1]; dog, iv, dog venous plasma, IV bolus, read-out: AUC0-240 (converted)",0.0423 µg·h/mL
same,AUC(0-t),"[1]; dog, iv, dog venous plasma, IV bolus, read-out: AUClast (converted)",0.0453 µg·h/mL
same,bioavailability,"[1]; inhaled or intranasal, dog, based on AUC for venous plasma, n=3, read-out: F, mean bioavailability for inhalation administration",95.5%
same,Cmax,[1]; [5],0.676 ± 0.0995 µg/mL
same,Tmax,[1]; [5],0.25 min
same,AUC,[1]; [6],0.0497 µg·h/mL
same,Cmax,"[1]; inhaled or intranasal, dog venous plasma, aerosol inhalation, mean ± SD, n=4",0.102 ± 0.0572 µg/mL
same,Tmax,[1]; [6],0.5 min
same,half-life,"[1]; inhaled or intranasal, dog venous plasma, aerosol inhalation, read-out: Half-Life",115 ± 12.9 min
same,half-life,"[1]; intravenous, inhaled, dog venous plasma, both routes, read-out: mean terminal elimination half-life",~110 min
same,bioavailability,"[1]; left ventricular plasma, inhaled or intranasal, dog, based on AUC for left ventricle plasma, three animals, read-out: mean bioavailability for inhalation administration",85%
same,half-life,"[1]; left ventricular plasma, intravenous, inhaled, dog left ventricle plasma, both routes, read-out: mean terminal elimination half-life",~4 min
same,Cmax,[1]; [7],0.967 ± 0.303 µg/mL
same,Tmax,[1]; [7],0.42 min
same,Cmax,"[1]; dog venous plasma, 5-second IV bolus, mean ± SD, n=4",0.147 ± 0.0935 µg/mL
same,AUC,"[1]; dog venous plasma, IV bolus",0.0523 µg·h/mL
same,Tmax,"[1]; dog venous plasma, IV bolus",0.75 min
same,half-life,"[1]; dog venous plasma, IV bolus, read-out: Half-Life",106 ± 22 min
same,body weight change between treatment sessions,[2],no remarkable change
same,adverse effects by clinical observations,[2]; 0.7 mg IV bolus and aerosol sessions,no adverse effects
"CN1CCN(CCCN2c3ccccc3Sc3ccc(Cl)cc32)CC1 [PCZ, prochlorperazine]",oral bioavailability,[3],12.5%
same,Tmax,"in vivo; left ventricular and venous plasma, iv, dog left ventricular and venous plasma, 2-minute IV infusion",1.25 to 3 min
same,AUC(0-t),in vivo; [8],0.0891 ± 0.0137 µg·h/mL
same,Cmax,in vivo; [8],3.26 ± 0.975 µg/mL
same,Tmax,in vivo; [8],0.33 min
same,AUC(0-t),in vivo; [9],0.0885 ± 0.0257 µg·h/mL
same,AUC(0-t),in vivo; [10],0.0983 ± 0.015 µg·h/mL
same,Cmax,in vivo; [9],1.36 ± 0.396 µg/mL
same,Cmax,in vivo; [10],3.48 ± 0.767 µg/mL
same,Tmax,in vivo; [9],1.9 min
same,Tmax,in vivo; [10],0.5 min
same,Cmax,"in vivo; venous plasma, inhaled or intranasal, dog venous plasma, thermal aerosol single deep inhalation, mean ± SD",0.886 ± 0.268 µg/mL
same,half-life,"in vivo; venous plasma, inhaled or intranasal, Half-Life, dog venous plasma, aerosol inhalation",76.2 ± 17.4 min
same,Tmax,"in vivo; venous plasma, inhaled or intranasal, dog venous plasma, aerosol inhalation",1 min
same,bioavailability,"in vivo; venous plasma, inhaled, aerosol bioavailability to IV bolus, 7 mg aerosol vs IV bolus",82%
same,bioavailability,"in vivo; venous plasma, inhaled, aerosol bioavailability to IV infusion, 7 mg aerosol vs 2-min IV infusion",109%
same,clearance,"in vivo; venous plasma, intravenous, inhaled, mean clearances, dog venous, span over the three groups",1.13 to 1.49 L/h/kg
same,half-life,"in vivo; venous plasma, intravenous, inhaled, mean half-lives, dog venous, span over the three groups",76.2 to 105 min
same,clearance,"in vivo; venous plasma, iv, CL, dog venous plasma, 2-min IV infusion",1.49 L/h/kg
same,clearance,"in vivo; venous plasma, iv, CL, dog venous plasma, IV bolus",1.13 ± 0.216 L/h/kg
same,Cmax,"in vivo; venous plasma, iv, dog venous plasma, 2-min IV infusion, mean ± SD",0.442 ± 0.27 µg/mL
same,Cmax,"in vivo; venous plasma, iv, dog venous plasma, 5-second IV bolus, mean ± SD",1.3 ± 1.27 µg/mL
same,half-life,"in vivo; venous plasma, iv, Half-Life, dog venous plasma, 2-min IV infusion",105 ± 9.6 min
same,half-life,"in vivo; venous plasma, iv, Half-Life, dog venous plasma, IV bolus",82.2 ± 6 min
same,Tmax,in vivo; [11],2.5 min
same,Tmax,in vivo; [12],1.1 min
same,Vd,in vivo; [11],3.8 L/kg
same,Vd,in vivo; [12],2.3 ± 0.6 L/kg
same,adverse effects by clinical observations,"[4]; 7 mg IV infusion, aerosol, IV bolus sessions",no adverse effects
same,body weights between treatment sessions,[4]; all animals,maintained
same,Cmax,"dog left ventricular plasma, 7 mg, 2-min IV infusion",1.3653 ± 0.3962 µg/mL
same,Cmax,"dog left ventricular plasma, 7 mg, IV bolus",3.4818 ± 0.7872 µg/mL
same,Cmax,"dog left ventricular plasma, 7 mg, aerosol inhalation",3.2615 ± 0.9748 µg/mL
same,Cmax,"dog left ventricular plasma, 7 mg, aerosol inhalation, listed as prochlorperazine",3.261 µg/mL
same,time of maximum left ventricular concentration,[7],30 s
same,time of maximum left ventricular concentration,"dog left ventricular plasma, aerosol inhalation",20 s
same,AUC0-10 min,[13],0.0322 ± 0.0211 µg·h/mL
same,AUCinf,[13],0.2299 ± 0.0357 µg·h/mL
same,Tlast,[13],8.0 ± 0.0 h
same,Cmax,"dog venous plasma, 7 mg, 2-min IV infusion, mean ± SD",0.4418 ± 0.2699 µg/mL
same,AUC0-10 min,[14],0.0634 ± 0.0157 µg·h/mL
same,AUCinf,[14],0.3051 ± 0.0593 µg·h/mL
same,Tlast,[14],8.0 ± 0.0 h
same,AUC0-10 min,[15],0.0565 ± 0.0106 µg·h/mL
same,AUCinf,[15],0.2504 ± 0.0582 µg·h/mL
same,Tlast,[15],6.0 ± 2.3 h
same,Vd,[15],2.6 ± 1.1 L/kg
same,Cmax,"dog venous plasma, 7 mg, thermal aerosol single deep inhalation, mean ± SD",0.8865 ± 0.2683 µg/mL
same,"mean maximum concentration, left ventricular plasma relative to venous plasma","dog, 2-minute IV infusion",approximately 3 fold
same,venous plasma concentration at time points after 8 hr (undetectable levels),"dog, 2-minute IV infusion",< 2 ng/mL
same,peak concentration in left ventricular plasma relative to 2-minute IV infusion,"dog, aerosol and IV bolus treatments",approximately 2.5 fold
same,"F, aerosol bioavailability to IV infusion","dog, based on venous AUCinf, 7 mg aerosol vs 2-min IV infusion",108.7±19% and 108.9 ± 19.2%
same,"F, aerosol bioavailability to IV bolus","dog, based on venous AUCinf, 7 mg aerosol vs IV bolus",82.1 ± 13.1%
same,(ventricular) spike index for inhalation,"dog, left ventricular Cmax aerosol divided by Cmax 2-min IV infusion",2.4
